This is an account of results in patent publication US12486269B2 (Aconcagua Bio, Inc., priority 2024, dated 2025).

Structures are written as SMILES.

Assay [1] addresses T1, COS-7/AMY3 (human calcitonin receptor (CTR) and RAMP3) (Homo sapiens, UniProt O60896+P30988).
T1 construct: expressed in transfected cells; host or cells: COS-7
Kind of assay: Amylin Receptor cAMP Assay II. The note with it: values marked **: Amylin Receptor cAMP Assay II; COS-7/AMY3 cells, cAMP dynamic 2 kit, 30 min; read-out: Amylin Receptor cAMP Stimulation Activity: EC50. It counts as cell-based. From the text: AMYRs are heterodimers of the class B calcitonin (CT) G-protein-coupled receptor (CTR) and receptor activity-modifying proteins (RAMPs). All three RAMPs can interact with the CTR and form AMY1, AMY2, AMY3 with RAMP1, RAMP2 and RAMP3, respectively. Like other class B1 GPCRs, the CT receptor family is canonically coupled to Gs-mediated cAMP production, and measurement of cAMP accumulation has been the primary assay used to determine peptide selectivity and potency.
(§1) To optimize functional activity directed toward Gαs coupling, COS-7 cells were stably transfected with human calcitonin receptor (CTR) and RAMP3, simultaneously. 100×concentration of compound working solutions were prepared with 4-fold serial dilution in 384-well Echo LDV plate (Labcyte, Cat #LP-0200-BC). 200 nL/well 100×concentration of compound working solutions were moved to 384-well white microplate (Perkin Elmer, Cat #6007680) using Labcyte ECHO550. 1×10^5 cells/mL COS-7/AMY3 cell suspensions prepared with assay buffer [HBSS containing 20 mM HEPES (Gibco, Cat #15630-080), 0.5 mM IBMX (Sigma, Cat #15879) and 0.1% Casein (Sigma, Cat #C4765)], 20 μL cell suspensions were added to each well of previous generated assay plate which already contains 200 nL compound at 100×concentration using ThermoFisher Multidrop Combi (2000 cells/well). Seal the plate and incubate at 37° C. with 5% CO2 for 30 min.
(§2) After incubation, the cAMP assay signal was generated using cAMP dynamic 2 kit (Revvity, Cat #62AM4PEC). 10 μL cAMP-d2 working solution was added to each well, followed by 10 μL Anti-cAMP antibody-cryptate working solution which was added to each well using CERTUS FLEX LIQUID […]. The samples were then incubated at room temperature for 1 hour protected from light. the fluorescence was read at 665 and 615 nm with Reader PerkinElmer EnVision 2105. % Activity=100−(mean RLU of test sample−mean RLU of positive control)/(mean RLU of vehicle control−mean RLU of positive control)×100 Calcitonin Receptor (CTR) cAMP Assay

Assay [2] addresses T2, human calcitonin receptor (CTR) (Homo sapiens, UniProt P30988).
T2 construct: expressed in transfected cells; host or cells: COS-7 (COS7-human CTR Clone #2)
T2 sequence (P30988 25-474): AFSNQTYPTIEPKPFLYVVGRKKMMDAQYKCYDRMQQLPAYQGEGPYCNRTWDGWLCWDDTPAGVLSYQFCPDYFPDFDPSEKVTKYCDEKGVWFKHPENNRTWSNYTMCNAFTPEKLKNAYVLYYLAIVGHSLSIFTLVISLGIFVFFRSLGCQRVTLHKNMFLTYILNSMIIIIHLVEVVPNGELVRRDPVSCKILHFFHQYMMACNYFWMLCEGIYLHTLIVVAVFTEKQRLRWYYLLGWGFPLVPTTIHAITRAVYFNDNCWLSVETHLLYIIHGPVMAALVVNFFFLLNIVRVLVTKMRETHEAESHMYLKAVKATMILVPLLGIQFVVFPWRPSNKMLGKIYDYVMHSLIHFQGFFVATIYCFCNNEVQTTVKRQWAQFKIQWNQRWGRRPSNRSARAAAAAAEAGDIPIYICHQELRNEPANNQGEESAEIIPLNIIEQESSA
Kind of assay: Calcitonin Receptor (CTR) cAMP Assay. Format: cell-based. The note with it: COS7-human CTR Clone #2 stable cell line, cAMP dynamic 2 kit, 30 min; read-out: Calcitonin Receptor cAMP Stimulation Activity: EC50. The protocol: as §2
The calcitonin receptor (CTR) belongs to the subfamily of GPCRs known as the secretin or ‘B’ family of GPCRs. Like other class B1 GPCRs, the CT receptor family is canonically coupled to Gs-mediated cAMP production, and measurement of cAMP accumulation has been the primary assay used to determine peptide selectivity and potency.
as §1, with “to create COS7-human CTR Clone #2 stable cell line.” for “and RAMP3, simultaneously.”, “COS7-human CTR Clone #2” for “COS-7/AMY3”
After incubation, the cAMP assay signal was generated using cAMP dynamic 2 kit (Revvity, Cat #62AM4PEC). 10 μL cAMP-d2 working solution was added to each well, followed by 10 μL Anti-cAMP antibody-cryptate working solution which was added to each well using CERTUS FLEX LIQUID […]. The samples were then incubated at room temperature for 1 hour protected from light. the fluorescence was read at 665 and 615 nm with Reader PerkinElmer EnVision 2105. % Activity=100−(mean RLU of test sample−mean RLU of positive control)/(mean RLU of vehicle control−mean RLU of positive control)×100

T1 sequence (O60896 24-148, one chain of several): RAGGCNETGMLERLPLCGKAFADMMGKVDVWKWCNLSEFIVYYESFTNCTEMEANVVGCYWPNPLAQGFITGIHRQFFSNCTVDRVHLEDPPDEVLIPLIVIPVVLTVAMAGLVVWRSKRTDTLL

Consider `COc1c(F)c(F)cc2c1CC[C@H]2Nc1nc(C)cc2cc(-c3c4c(nc(CCc5ccc(F)cc5)c3-c3n[nH]c(=O)o3)C35CC(CN3C4=O)C5)sc12` [Compound 195, (R)-5-(4-(7-((5,6-difluoro-4-methoxy-2,3-dihydro-1H-inden-1-yl)amino)-5-methylthieno[2,3-c]pyridin-2-yl)-2-(4-fluorophenethyl)-5-oxo-8,9-dihydro-5H,7H-8,9a-methanopyrido[2,3-a]pyrrolizin-3-yl)-1,3,4-oxadiazol-2(3H)-one], for which the figures for the concentration for a half-maximal effect (EC50) in assay [1] and in assay [2] were 0.0995 nM and 0.00616 nM, respectively.

`COc1c(Cl)ccc2c1CC[C@H]2Nc1nccc2cc(-c3c4c(nc(CCc5ccc(F)cc5)c3-c3n[nH]c(=O)o3)[C@@H]3CCCN3C4=O)sc12` [Compound 173, 5—((S)-4-(7-(((R)-5-chloro-4-methoxy-2,3-dihydro-1H-inden-1-yl)amino)thieno[2,3-c]pyridin-2-yl)-2-(4-fluorophenethyl)-5-oxo-7,8,9,9a-tetrahydro-5H-pyrido[2,3-a]pyrrolizin-3-yl)-1,3,4-oxadiazol-2(3H)-one]: the EC50 (in general, the concentration needed to bring the measured effect to its halfway point) amounted to 16.9 nM in assay [1] and 0.788 nM in assay [2].

Turning to `N#Cc1ccc(Cn2ccc3cc(-c4c(-c5n[nH]c(=O)o5)c(CCc5ccc(F)cc5)nc5c4c(=O)n4n5CCC4)ccc32)cc1F` [Compound 158, 2-fluoro-4-((5-(2-(4-fluorophenethyl)-5-oxo-3-(5-oxo-4,5-dihydro-1,3,4-oxadiazol-2-yl)-8,9-dihydro-5H,7H-pyrazolo[1′,2′:1,2]pyrazolo[3,4-b]pyridin-4-yl)-1H-indol-1-yl)methyl)benzonitrile], the EC50 was found to be 12.8 nM in assay [1] and 1.19 nM in assay [2].

On to `COc1cccc2c1CC[C@H]2Nc1nccc2cc(-c3c4c(nc(CCc5cccc(C(F)(F)F)c5)c3-c3n[nH]c(=O)o3)[C@@H]3CCCN3C4=O)sc12` [Compound 171, 5-((S)-4-(7-(((R)-4-methoxy-2,3-dihydro-1H-inden-1-yl)amino)thieno[2,3-c]pyridin-2-yl)-5-oxo-2-(3-(trifluoromethyl)phenethyl)-7,8,9,9a-tetrahydro-5H-pyrido[2,3-a]pyrrolizin-3-yl)-1,3,4-oxadiazol-2(3H)-one], for which the EC50 was determined as 71.4 nM in assay [1] and 1.52 nM in assay [2].

In the case of `COc1cccc2c1CC[C@H]2Nc1nc(C(F)F)cc2cc(-c3c4c(nc(CCc5ccc(F)cc5)c3-c3n[nH]c(=O)o3)[C@@H]3CCCN3C4=O)sc12` [Compound 188, 5-((S)-4-(5-(difluoromethyl)-7-(((R)-4-methoxy-2,3-dihydro-1H-inden-1-yl)amino)thieno[2,3-c]pyridin-2-yl)-2-(4-fluorophenethyl)-5-oxo-7,8,9,9a-tetrahydro-5H-pyrido[2,3-a]pyrrolizin-3-yl)-1,3,4-oxadiazol-2(3H)-one], the figures for the EC50 in assay [1] and in assay [2] were 6.57 nM and 0.223 nM, respectively.

Regarding `COc1cccc2c1CC[C@H]2Nc1nccc2cc(-c3c4c(nc(CCc5ccc(F)cc5)c3-c3n[nH]c(=O)o3)[C@H]3CCCN3C4=O)sc12` [Compound 229, 5-((R)-2-(4-fluorophenethyl)-4-(7-(((R)-4-methoxy-2,3-dihydro-1H-inden-1-yl)amino)thieno[2,3-c]pyridin-2-yl)-5-oxo-7,8,9,9a-tetrahydro-5H-pyrido[2,3-a]pyrrolizin-3-yl)-1,3,4-oxadiazol-2(3H)-one], the figures for the EC50 in assay [1] and in assay [2] were 48.4 nM and 13.4 nM, respectively.

`O=C1c2c(nc(CCc3ccc(F)cc3)c(-c3noc(=O)[nH]3)c2-c2cc3ccnc(NCc4ccc(F)c(Cl)c4)c3s2)[C@@H]2CCCN12` [Compound 146]: the values for the EC50 in assay [1] and in assay [2] were 54.1 nM and 3.18 nM, respectively.

On to `O=C1c2c(nc(CCc3ccc(F)cc3)c(-c3noc(=O)[nH]3)c2-c2cc3ccnc(NCc4ccc(F)c(F)c4)c3s2)[C@@H]2CCCN12` [Compound 130], for which the EC50 came to 38.3 nM in assay [1] and 3.06 nM in assay [2].

For the compound `O=C1c2c(nc(CCc3ccc(F)cc3)c(-c3n[nH]c(=O)o3)c2-c2cc3ccnc(N[C@@H]4CCc5c4ccc(F)c5Cl)c3s2)[C@@H]2CCCN12` [Compound 168, 5-((S)-4-(7-(((R)-4-chloro-5-fluoro-2,3-dihydro-1H-inden-1-yl)amino)thieno[2,3-c]pyridin-2-yl)-2-(4-fluorophenethyl)-5-oxo-7,8,9,9a-tetrahydro-5H-pyrido[2,3-a]pyrrolizin-3-yl)-1,3,4-oxadiazol-2(3H)-one], the EC50 in assay [1] turned out to be 15.3 nM; in assay [2] it was 0.341 nM.

For the compound `COc1cc(F)cc2c1CC[C@H]2Nc1nccc2cc(-c3c4c(nc(CCc5ccc(F)cc5)c3-c3n[nH]c(=O)o3)[C@@H]3CCCN3C4=O)sc12` [Compound 258, 5-((S)-4-(7-(((R)-6-fluoro-4-methoxy-2,3-dihydro-1H-inden-1-yl)amino)thieno[2,3-c]pyridin-2-yl)-2-(4-fluorophenethyl)-5-oxo-7,8,9,9a-tetrahydro-5H-pyrido[2,3-a]pyrrolizin-3-yl)-1,3,4-oxadiazol-2(3H)-one], the EC50 was determined as 1.91 nM in assay [1] and 0.171 nM in assay [2].

With `O=C1c2c(nc(CCc3ccc(F)cc3)c(-c3n[nH]c(=O)o3)c2-c2ccc3c(Cc4ccc(F)cc4F)nccc3c2)[C@@H]2CCCN12` [Compound 219, (S)-5-(4-(1-(2,4-difluorobenzyl)isoquinolin-6-yl)-2-(4-fluorophenethyl)-5-oxo-7,8,9,9a-tetrahydro-5H-pyrido[2,3-a]pyrrolizin-3-yl)-1,3,4-oxadiazol-2(3H)-one], the EC50 in assay [1] was 437 nM; in assay [2], 27.4 nM.

With `COc1c(F)ccc2c1CC[C@H]2Nc1nc(C)cc2cc(-c3c4c(nc(CCc5ccc(F)cc5)c3-c3n[nH]c(=O)o3)[C@@H]3CCCN3C4=O)sc12` [Compound 187, 5-((S)-4-(7-(((R)-5-fluoro-4-methoxy-2,3-dihydro-1H-inden-1-yl)amino)-5-methylthieno[2,3-c]pyridin-2-yl)-2-(4-fluorophenethyl)-5-oxo-7,8,9,9a-tetrahydro-5H-pyrido[2,3-a]pyrrolizin-3-yl)-1,3,4-oxadiazol-2(3H)-one], the EC50 in assay [1] came out at 0.608 nM; in assay [2], 0.0484 nM.
